The test system of this assay is skin. The conditions noted are these: for Rating: 5% sample applied to skin, scale of 1 to 5, 1 being poor and 5 being best. An excerpt: The effect of moisturization can be measured by the appearance of the skin when treated. Untreated skin that is in need of moisturization is rough, scaly and dry looking under the dissection microscope. The application of the moisturization solution to the skin and its effect upon minimizing roughness, scaling and dry appearance is a good measure of moisturization. We performed such an evaluation and rated the performance of a scale of 1 to 5.1 being poor and 5 being best.

SMILES strings stand for the structures.

For the compound `C[N+](C)(C)CCO` [Choline], the Rating was determined as 4. In the case of `C[N+](C)(CCO)CC(O)CO.[Cl-]` (stereo not shown) [Example 3], the Rating was determined as 5. In addition, the “moisturization effect in words” value (applied to rough dry skin) is given as “very effective moisturization agent”. Take `OCC(O)CO` [Glycerin]: the Rating worked out at 2.

The values above are taken from patent US6869977B1, “Skin moisturization compound” (Colonial Chemical Inc., priority 2004, dated 2005).
